US11319298B2 (Merck Sharp & Dohme Corp., priority 2016, dated 2022)

The compounds below were run against T1, human M4 muscarinic acetylcholine receptor (Homo sapiens, UniProt P08173) (assay: human FLIPR-based M4 PAM assay, CHO-K1 cells stably transfected with human M4 receptor and chimeric G-protein Gαqi5). Conditions: inflection point (IP) of dose response curve; acetylcholine added at 20% of maximum response; CHO-K1 human M4/Gαqi5, FLIPR Tetra.
T1 construct: expressed in transfected cells; host or cells: CHO-K1
T1 sequence (P08173 1-479): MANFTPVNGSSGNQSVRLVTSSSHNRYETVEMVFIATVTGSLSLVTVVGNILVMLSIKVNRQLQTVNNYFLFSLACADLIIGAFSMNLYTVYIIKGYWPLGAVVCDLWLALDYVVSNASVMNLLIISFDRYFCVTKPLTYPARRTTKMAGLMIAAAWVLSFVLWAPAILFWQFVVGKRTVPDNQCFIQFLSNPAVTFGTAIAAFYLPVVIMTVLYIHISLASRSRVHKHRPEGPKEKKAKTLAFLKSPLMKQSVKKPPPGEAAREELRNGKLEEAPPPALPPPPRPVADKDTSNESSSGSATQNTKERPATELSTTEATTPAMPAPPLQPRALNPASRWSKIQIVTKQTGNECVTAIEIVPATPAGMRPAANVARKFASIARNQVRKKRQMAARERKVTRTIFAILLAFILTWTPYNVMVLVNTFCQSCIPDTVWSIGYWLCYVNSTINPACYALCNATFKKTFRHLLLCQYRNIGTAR
Type: cell-based
Method in brief: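 The FLIPR read recorded 4 min after compound was added across a concentration range, then 3.5 min after acetylcholine giving 20% of its maximal response, with an occasional extra EC70 addition. Cells were dye-loaded for about 1 h at 37 °C. Potency is the curve inflection point from a four-parameter logistic fit.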

| EC50 [nM] | SMILES |
| --- | --- |
| 118 | Cc1cc(C(=O)NCc2ccccc2Cl)nnc1N1CCC(Oc2cccc(C#N)c2)CC1 [Example 199, N-(2-chlorobenzyl)-6-[4-(3-cyanophenoxy)piperidin-1-yl]-5-methylpyridazine-3-carboxamide] |
| 218 | COc1ccc(OC2CCN(c3nnc(C(=O)NC4CCCc5ccccc54)cc3C)CC2)cn1 (stereo not shown) [Example 200, 6-{4-[(6-methoxypyridin-3-yl)oxy]piperidin-1-yl}-5-methyl-N-(1,2,3,4-tetrahydronaphthalen-1-yl)pyridazine-3-carboxamide] |
| 272 | Cc1cc(C(=O)NC2CCc3ccccc3C2)nnc1N1CCC(Oc2cccc(C#N)c2)CC1 (stereo not shown) [Example 201, 6-[4-(3-cyanophenoxy)piperidin-1-yl]-5-methyl-N-(1,2,3,4-tetrahydronaphthalen-2-yl)pyridazine-3-carboxamide] |
| 473 | Cc1cc(C(=O)NC2CCCc3ccccc32)nnc1N1CCC(Oc2cccc(C#N)c2)CC1 (stereo not shown) [Example 202, 6-[4-(3-cyanophenoxy)piperidin-1-yl]-5-methyl-N-(1,2,3,4-tetrahydronaphthalne-1-yl)pyridazine-3-carboxamide] |
| 504 | COc1ccc(OC2CCN(c3nnc(C(=O)N4CCc5snc(-c6cccnc6)c5C4)cc3C)CC2)cn1 [Example 203, 5-[(6-{4-[(6-methoxypyridin-3-yl)oxy]piperidin-1-yl}-5-methylpyridazin-3-yl)carbonyl]-3-pyridin-3-yl-4,5,6,7-tetrahydroisothiazolo[4,5-c]pyridine] |
| 1150 | Cc1cc(C(=O)N2CCc3snc(-c4cccnc4)c3C2)nnc1N1CCC(Oc2cccc(C#N)c2)CC1 [Example 204, 3-[(1-{4-methyl-6-[(3-pyridin-3-yl-6,7-dihydroisothiazolo[4,5-c]pyridin-5(4H)-yl)carbonyl]pyridazin-3-yl}piperidin-4-yl)oxy]benzonitrile] |
| 99 | Cc1cc(C(=O)NCc2ccncc2)nnc1N1CCC(Oc2cccc(C#N)c2)CC1 [Example 204A, 6-(4-(3-cyanophenoxy)piperidin-1-yl)-5-methyl-N-(pyridin-4-ylmethyl)pyridazine-3-carboxamide] |
| 97 | CCc1cc(C(=O)NCc2ccncc2)nnc1N1CCC(Oc2ccc(OC)nc2)CC1 [Example 205, 5-Ethyl-6-(4-((6-methoxypyridin-3-yl)oxy)piperidin-1-yl)-N-(pyridin-4-ylmethyl)pyridazine-3-carboxamide] |
| 168 | COc1ccc(OC2CCN(c3nc(C(N)=O)nc(Cl)c3C)CC2)cn1 [Example 206, 4-chloro-6-(4-((6-methoxypyridin-3-yl)oxy)piperidin-1-yl)-5-methylpyrimidine-2-carboxamide] |
| 224 | COc1ccc(OC2CCN(c3nc(C(=O)NCc4ccncc4)nc(Cl)c3C)CC2)cn1 [Example 207, 4-chloro-6-(4-((6-methoxypyridin-3-yl)oxy)piperidin-1-yl)-5-methyl-N-(pyridin-4-ylmethyl)pyrimidine-2-carboxamide] |
| 491 | COc1ccc(OC2CCN(c3nc(C(=O)NCCc4ccncc4)nc(Cl)c3C)CC2)cn1 [Example 208, 4-chloro-6-(4-((6-methoxypyridin-3-yl)oxy)piperidin-1-yl)-5-methyl-N-(2-(pyridin-4-yl)ethyl)pyrimidine-2-carboxamide] |
| 533 | COc1ccc(OC2CCN(c3nc(C(=O)NNC(C)C)nc(Cl)c3C)CC2)cn1 [Example 209, 4-chloro-N′-isopropyl-6-(4-((6-methoxypyridin-3-yl)oxy)piperidin-1-yl)-5-methylpyrimidine-2-carbohydrazide] |
| 592 | COc1ccc(OC2CCN(c3nc(C(=O)NC45CC(C4)C5)nc(Cl)c3C)CC2)cn1 [Example 210, N-(bicyclo[1.1.1]pentan-1-yl)-4-chloro-6-(4-((6-methoxypyridin-3-yl)oxy)piperidin-1-yl)-5-methylpyrimidine-2-carboxamide] |
| 635 | COc1ccc(OC2CCN(c3nc(C(=O)NCc4ccncc4Cl)nc(Cl)c3C)CC2)cn1 [Example 211, 4-chloro-N-((3-chloropyridin-4-yl)methyl)-6-(4-((6-methoxypyridin-3-yl)oxy)piperidin-1-yl)-5-methylpyrimidine-2-carboxamide] |
| 705 | COc1ccc(OC2CCN(c3nc(C(=O)NC(C)(C)C)nc(Cl)c3C)CC2)cn1 [Example 212] |
| 729 | COc1ccc(OC2CCN(c3nc(C(=O)NC(C)C)nc(Cl)c3C)CC2)cn1 [Example 213, 4-chloro-N-isopropyl-6-(4-((6-methoxypyridin-3-yl)oxy)piperidin-1-yl)-5-methylpyrimidine-2-carboxamide] |
| 770 | COc1ccc(OC2CCN(c3nc(C(=O)NC4CCCc5cnccc54)nc(Cl)c3C)CC2)cn1 (stereo not shown) [Example 214, 4-chloro-6-(4-((6-methoxypyridin-3-yl)oxy)piperidin-1-yl)-5-methyl-N-(5,6,7,8-tetrahydroisoquinolin-5-yl)pyrimidine-2-carboxamide] |
| 835 | COc1ccc(OC2CCN(c3nc(C(=O)NC4CNC4)nc(Cl)c3C)CC2)cn1 [Example 215, N-(azetidin-3-yl)-4-chloro-6-(4-((6-methoxypyridin-3-yl)oxy)piperidin-1-yl)-5-methylpyrimidine-2-carboxamide] |
| 997 | COc1ccc(OC2CCN(c3nc(C(=O)NC4CCc5ccncc5C4)nc(Cl)c3C)CC2)cn1 (stereo not shown) [Example 216, 4-chloro-6-(4-((6-methoxypyridin-3-yl)oxy)piperidin-1-yl)-5-methyl-N-(5,6,7,8-tetrahydroisoquinolin-7-yl)pyrimidine-2-carboxamide] |
| 1020 | COc1ccc(OC2CCN(c3nc(C(=O)NC4CCc5cccnc5C4)nc(Cl)c3C)CC2)cn1 (stereo not shown) [Example 217, 4-chloro-6-(4-((6-methoxypyridin-3-yl)oxy)piperidin-1-yl)-5-methyl-N-(5,6,7,8-tetrahydroquinolin-7-yl)pyrimidine-2-carboxamide] |
| 1050 | COc1ccc(OC2CCN(c3nc(C(=O)NC4CCc5ncccc5C4)nc(Cl)c3C)CC2)cn1 (stereo not shown) [Example 218, 4-chloro-6-(4-((6-methoxypyridin-3-yl)oxy)piperidin-1-yl)-5-methyl-N-(5,6,7,8-tetrahydroquinolin-6-yl)pyrimidine-2-carboxamide] |
| 1090 | COc1ccc(OC2CCN(c3nc(C(=O)NCc4ccccc4Cl)nc(Cl)c3C)CC2)cn1 [Example 219, 4-chloro-N-(2-chlorobenzyl)-6-(4-((6-methoxypyridin-3-yl)oxy)piperidin-1-yl)-5-methylpyrimidine-2-carboxamide] |
| 1430 | COc1ccc(OC2CCN(c3nc(C(=O)NC(C)(C)c4ccncc4)nc(Cl)c3C)CC2)cn1 [Example 220, 4-chloro-6-(4-((6-methoxypyridin-3-yl)oxy)piperidin-1-yl)-5-methyl-N-(2-(pyridin-4-yl)propan-2-yl)pyrimidine-2-carboxamide] |
| 1830 | COc1ccc(OC2CCN(c3nc(C(=O)NC4CCc5ccccc5C4)nc(Cl)c3C)CC2)cn1 (stereo not shown) [Example 221, 4-chloro-6-(4-((6-methoxypyridin-3-yl)oxy)piperidin-1-yl)-5-methyl-N-(1,2,3,4-tetrahydronaphthalen-2-yl)pyrimidine-2-carboxamide] |
| 141 | COc1ccc(O[C@@H]2CCN(c3nc(C(N)=O)nc(Cl)c3C)C[C@@H]2F)cn1 [Example 222, 4-chloro-6-((3S,4R)-3-fluoro-4-((6-methoxypyridin-3-yl)oxy)piperidin-1-yl)-5-methylpyrimidine-2-carboxamide] |
